Measured values: PubChem BioAssay (NCI)
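1) Cells in 96-well plates. 2) Compound, 48 h, 5 concentrations. 3) Linear interpolation between surrounding doses. 4) Unreached endpoint = highest concentration. The concentration for 50% growth inhibition is given as GI50. At the TGI there is no net growth.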

Legend:
Assay in all cases: NCI tumour cell line growth inhibition, 48 h
HL-60(TB) leukemia = test system: HL-60(TB) leukemia
SF-539 CNS = test system: SF-539 CNS
UACC-257 melanoma = test system: UACC-257 melanoma
SF-295 CNS = test system: SF-295 CNS
SR leukemia = test system: SR leukemia
NCI-H226 lung = test system: NCI-H226 lung
PC-3 prostate = test system: PC-3 prostate
HCT-116 colon = test system: HCT-116 colon
SNB-19 CNS = test system: SNB-19 CNS
OVCAR-8 ovarian = test system: OVCAR-8 ovarian
NCI-H522 lung = test system: NCI-H522 lung
SF-268 CNS = test system: SF-268 CNS
HOP-62 NSCLC = test system: HOP-62 NSCLC
MDA-MB-231 breast = test system: MDA-MB-231 breast
HCT-15 colon = test system: HCT-15 colon
DU-145 prostate = test system: DU-145 prostate
SK-MEL-2 melanoma = test system: SK-MEL-2 melanoma
NCI/ADR-RES ovarian = test system: NCI/ADR-RES ovarian
MALME-3M melanoma = test system: MALME-3M melanoma
OVCAR-5 ovarian = test system: OVCAR-5 ovarian
TK-10 renal = test system: TK-10 renal
HT29 colon = test system: HT29 colon
NCI-H23 lung = test system: NCI-H23 lung
BT-549 breast = test system: BT-549 breast
KM12 colon = test system: KM12 colon
SK-MEL-28 melanoma = test system: SK-MEL-28 melanoma
MOLT-4 leukemia = test system: MOLT-4 leukemia
A498 renal = test system: A498 renal
CAKI-1 renal = test system: CAKI-1 renal
NCI-H460 lung = test system: NCI-H460 lung
RPMI-8226 leukemia = test system: RPMI-8226 leukemia
T-47D breast = test system: T-47D breast
SW-620 colon = test system: SW-620 colon
SK-OV-3 ovarian = test system: SK-OV-3 ovarian
CCRF-CEM leukemia = test system: CCRF-CEM leukemia
A549 NSCLC = test system: A549 NSCLC
UO-31 renal = test system: UO-31 renal
U251 CNS = test system: U251 CNS
UACC-62 melanoma = test system: UACC-62 melanoma
SNB-75 CNS = test system: SNB-75 CNS
786-0 renal = test system: 786-0 renal
HS 578T breast = test system: HS 578T breast
OVCAR-4 ovarian = test system: OVCAR-4 ovarian
OVCAR-3 ovarian = test system: OVCAR-3 ovarian
IGROV1 ovarian = test system: IGROV1 ovarian
SK-MEL-5 melanoma = test system: SK-MEL-5 melanoma
MCF7 breast = test system: MCF7 breast
MDA-MB-435 = test system: MDA-MB-435
HCC-2998 colon = test system: HCC-2998 colon
LOX IMVI melanoma = test system: LOX IMVI melanoma
M14 melanoma = test system: M14 melanoma
K-562 leukemia = test system: K-562 leukemia
COLO 205 colon = test system: COLO 205 colon
ACHN renal = test system: ACHN renal
HOP-92 NSCLC = test system: HOP-92 NSCLC
RXF 393 renal = test system: RXF 393 renal
SN12C renal = test system: SN12C renal
EKVX NSCLC = test system: EKVX NSCLC

Work on `C=C[C@]1(C)C=C2C(=O)[C@@]3(O)OC(=O)[C@@]4(CCCC(C)(C)[C@H]34)[C@@]2(O)CC1` yielded a GI50 (HL-60(TB) leukemia) of 1.22 µM, a TGI (HL-60(TB) leukemia) of 4.43 µM and a GI50 (SF-539 CNS) of 1.37 µM. For the same compound, the TGI (SF-539 CNS) was 2.76 µM, the GI50 (UACC-257 melanoma) was 1.33 µM and the TGI (UACC-257 melanoma) was 2.91 µM. The GI50 (SF-295 CNS) was 4.43 µM, the TGI (SF-295 CNS) was 17.8 µM and the GI50 (SR leukemia) was 1.03 µM. It also gave a TGI (SR leukemia) of 8.5 µM, a GI50 (NCI-H226 lung) of 5.14 µM and a TGI (NCI-H226 lung) of 26.1 µM. The GI50 (PC-3 prostate) was 1.45 µM, the TGI (PC-3 prostate) was 5.08 µM and the GI50 (HCT-116 colon) was 1.3 µM. It also gave a TGI (HCT-116 colon) of 2.86 µM, a GI50 (SNB-19 CNS) of 6.33 µM and a TGI (SNB-19 CNS) of 19.7 µM. The GI50 (OVCAR-8 ovarian) was 1.69 µM, the TGI (OVCAR-8 ovarian) was 5.63 µM and the GI50 (NCI-H522 lung) was 0.57 µM. For the same compound, the TGI (NCI-H522 lung) was 2.03 µM, the GI50 (SF-268 CNS) was 1.89 µM and the TGI (SF-268 CNS) was 4.69 µM. The GI50 (HOP-62 NSCLC) was 4.17 µM, the TGI (HOP-62 NSCLC) was 15.7 µM and the GI50 (MDA-MB-231 breast) was 1.46 µM. For the same compound, the TGI (MDA-MB-231 breast) was 3.43 µM, the GI50 (HCT-15 colon) was 0.79 µM and the TGI (HCT-15 colon) was 3.05 µM. It also gave a GI50 (DU-145 prostate) of 1.67 µM, a TGI (DU-145 prostate) of 3.69 µM and a GI50 (SK-MEL-2 melanoma) of 2.27 µM. For the same compound, the TGI (SK-MEL-2 melanoma) was 5.02 µM, the GI50 (NCI/ADR-RES ovarian) was 2.89 µM and the TGI (NCI/ADR-RES ovarian) was over 100 µM. For the same compound, the GI50 (MALME-3M melanoma) was 0.926 µM, the TGI (MALME-3M melanoma) was 2.8 µM and the GI50 (OVCAR-5 ovarian) was 1.97 µM. The TGI (OVCAR-5 ovarian) was 3.85 µM, the GI50 (TK-10 renal) was 1.49 µM and the TGI (TK-10 renal) was 2.92 µM. For the same compound, the GI50 (HT29 colon) was 2.12 µM, the TGI (HT29 colon) was 6.86 µM and the GI50 (NCI-H23 lung) was 2.14 µM. The TGI (NCI-H23 lung) was 5.29 µM, the GI50 (BT-549 breast) was 1.07 µM and the TGI (BT-549 breast) was 2.48 µM. For the same compound, the GI50 (KM12 colon) was 3.42 µM, the TGI (KM12 colon) was 13.8 µM and the GI50 (SK-MEL-28 melanoma) was 1.67 µM. For the same compound, the TGI (SK-MEL-28 melanoma) was 3.22 µM, the GI50 (MOLT-4 leukemia) was 1.74 µM and the TGI (MOLT-4 leukemia) was 7.53 µM. For the same compound, the GI50 (A498 renal) was 1.51 µM, the TGI (A498 renal) was 3.6 µM and the GI50 (CAKI-1 renal) was 1.33 µM. For the same compound, the TGI (CAKI-1 renal) was 3.02 µM, the GI50 (NCI-H460 lung) was 3.39 µM and the TGI (NCI-H460 lung) was 13.9 µM. For the same compound, the GI50 (RPMI-8226 leukemia) was 1.13 µM, the TGI (RPMI-8226 leukemia) was 8.17 µM and the GI50 (T-47D breast) was 1.09 µM. The TGI (T-47D breast) was 3.49 µM, the GI50 (SW-620 colon) was 0.955 µM and the TGI (SW-620 colon) was 3.36 µM. It also gave a GI50 (SK-OV-3 ovarian) of 4.65 µM, a TGI (SK-OV-3 ovarian) of 17 µM and a GI50 (CCRF-CEM leukemia) of 0.383 µM. It also gave a TGI (CCRF-CEM leukemia) of 10.7 µM, a GI50 (A549 NSCLC) of 2.38 µM and a TGI (A549 NSCLC) of 7.26 µM. The GI50 (UO-31 renal) was 1.31 µM, the TGI (UO-31 renal) was 2.66 µM and the GI50 (U251 CNS) was 2.21 µM. For the same compound, the TGI (U251 CNS) was 5.68 µM, the GI50 (UACC-62 melanoma) was 1.37 µM and the TGI (UACC-62 melanoma) was 2.92 µM. For the same compound, the GI50 (SNB-75 CNS) was 1.09 µM, the TGI (SNB-75 CNS) was 2.45 µM and the GI50 (786-0 renal) was 1.68 µM. The TGI (786-0 renal) was 3.13 µM, the GI50 (HS 578T breast) was 2.77 µM and the TGI (HS 578T breast) was over 100 µM. It also gave a GI50 (OVCAR-4 ovarian) of 1.05 µM, a TGI (OVCAR-4 ovarian) of 2.87 µM and a GI50 (OVCAR-3 ovarian) of 1.08 µM. The TGI (OVCAR-3 ovarian) was 2.52 µM, the GI50 (IGROV1 ovarian) was 2.16 µM and the TGI (IGROV1 ovarian) was 4.58 µM. The GI50 (SK-MEL-5 melanoma) was 1.58 µM, the TGI (SK-MEL-5 melanoma) was 2.97 µM and the GI50 (MCF7 breast) was 1.42 µM. For the same compound, the TGI (MCF7 breast) was 6.96 µM, the GI50 (MDA-MB-435) was 1.76 µM and the TGI (MDA-MB-435) was 4.42 µM. For the same compound, the GI50 (HCC-2998 colon) was 2.14 µM, the TGI (HCC-2998 colon) was 3.81 µM and the GI50 (LOX IMVI melanoma) was 1.72 µM. For the same compound, the TGI (LOX IMVI melanoma) was 3.24 µM, the GI50 (M14 melanoma) was 1.79 µM and the TGI (M14 melanoma) was 3.82 µM. For the same compound, the GI50 (K-562 leukemia) was 2.13 µM, the TGI (K-562 leukemia) was 10.1 µM and the GI50 (COLO 205 colon) was 1.61 µM. For the same compound, the TGI (COLO 205 colon) was 2.98 µM, the GI50 (ACHN renal) was 1.12 µM and the TGI (ACHN renal) was 2.35 µM. The GI50 (HOP-92 NSCLC) was 0.282 µM, the TGI (HOP-92 NSCLC) was 1.62 µM and the GI50 (RXF 393 renal) was 0.608 µM. For the same compound, the TGI (RXF 393 renal) was 1.91 µM, the GI50 (SN12C renal) was 1.96 µM and the TGI (SN12C renal) was 4.82 µM.
`Cc1cc(NCC2CC/C(=C\C=C\c3ccccc3)C2=O)no1` (stereo not given) showed a TGI (HL-60(TB) leukemia) of over 100 µM, a TGI (SF-539 CNS) of over 100 µM and a TGI (UACC-257 melanoma) of over 100 µM. The TGI (SF-295 CNS) was over 100 µM, the TGI (SR leukemia) was over 100 µM and the TGI (NCI-H226 lung) was over 100 µM. The TGI (PC-3 prostate) was over 100 µM, the TGI (HCT-116 colon) was over 100 µM and the TGI (SNB-19 CNS) was over 100 µM. For the same compound, the TGI (OVCAR-8 ovarian) was over 100 µM, the TGI (NCI-H522 lung) was over 100 µM and the TGI (SF-268 CNS) was over 100 µM. The TGI (HOP-62 NSCLC) was over 100 µM, the TGI (MDA-MB-231 breast) was over 100 µM and the TGI (HCT-15 colon) was over 100 µM. The TGI (DU-145 prostate) was over 100 µM, the TGI (NCI/ADR-RES ovarian) was over 100 µM and the TGI (MALME-3M melanoma) was over 100 µM. For the same compound, the TGI (OVCAR-5 ovarian) was over 100 µM, the TGI (TK-10 renal) was over 100 µM and the TGI (HT29 colon) was over 100 µM. It also gave a TGI (NCI-H23 lung) of over 100 µM, a TGI (BT-549 breast) of over 100 µM and a TGI (KM12 colon) of over 100 µM. The TGI (SK-MEL-28 melanoma) was over 100 µM, the TGI (MOLT-4 leukemia) was over 100 µM and the TGI (A498 renal) was over 100 µM. The TGI (CAKI-1 renal) was over 100 µM, the TGI (NCI-H460 lung) was over 100 µM and the TGI (RPMI-8226 leukemia) was 88.8 µM. For the same compound, the TGI (T-47D breast) was over 100 µM, the TGI (SW-620 colon) was over 100 µM and the TGI (SK-OV-3 ovarian) was over 100 µM. For the same compound, the TGI (CCRF-CEM leukemia) was over 100 µM, the TGI (A549 NSCLC) was over 100 µM and the TGI (UO-31 renal) was over 100 µM. The TGI (U251 CNS) was over 100 µM, the TGI (UACC-62 melanoma) was over 100 µM and the TGI (786-0 renal) was over 100 µM. The TGI (HS 578T breast) was over 100 µM, the TGI (OVCAR-4 ovarian) was over 100 µM and the TGI (OVCAR-3 ovarian) was over 100 µM. For the same compound, the TGI (IGROV1 ovarian) was over 100 µM, the TGI (SK-MEL-5 melanoma) was over 100 µM and the TGI (MCF7 breast) was over 100 µM. For the same compound, the TGI (MDA-MB-435) was over 100 µM, the TGI (HCC-2998 colon) was over 100 µM and the TGI (LOX IMVI melanoma) was over 100 µM. For the same compound, the TGI (M14 melanoma) was over 100 µM, the TGI (K-562 leukemia) was over 100 µM and the TGI (COLO 205 colon) was over 100 µM. The TGI (ACHN renal) was over 100 µM, the TGI (HOP-92 NSCLC) was over 100 µM and the TGI (RXF 393 renal) was over 100 µM. It also gave a TGI (SN12C renal) of over 100 µM and a TGI (EKVX NSCLC) of over 100 µM.
